# Measured values published in PubChem BioAssay (NCI).
#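 1) Cells in 96-well plates. 2) Compound, 48 h, 5 concentrations. 3) Linear interpolation between surrounding doses. 4) Unreached endpoint = highest concentration. GI50 marks 50% less growth. TGI is the concentration that stops growth completely.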
# How the values were obtained:
# Experiment in all cases: NCI-60 cell line screen, 48 h
# A498 renal = system: A498 renal
# A549 NSCLC = system: A549 NSCLC
# ACHN renal = system: ACHN renal
# BT-549 breast = system: BT-549 breast
# CAKI-1 renal = system: CAKI-1 renal
# CCRF-CEM leukemia = system: CCRF-CEM leukemia
# DU-145 prostate = system: DU-145 prostate
# EKVX NSCLC = system: EKVX NSCLC
# HCC-2998 colon = system: HCC-2998 colon
# HCT-116 colon = system: HCT-116 colon
# HCT-15 colon = system: HCT-15 colon
# HL-60(TB) leukemia = system: HL-60(TB) leukemia
# HOP-62 NSCLC = system: HOP-62 NSCLC
# HS 578T breast = system: HS 578T breast
# HT29 colon = system: HT29 colon
# IGROV1 ovarian = system: IGROV1 ovarian
# K-562 leukemia = system: K-562 leukemia
# KM12 colon = system: KM12 colon
# LOX IMVI melanoma = system: LOX IMVI melanoma
# M14 melanoma = system: M14 melanoma
# MCF7 breast = system: MCF7 breast
# MDA-MB-231 breast = system: MDA-MB-231 breast
# MOLT-4 leukemia = system: MOLT-4 leukemia
# NCI-H226 lung = system: NCI-H226 lung
# NCI-H23 lung = system: NCI-H23 lung
# NCI-H460 lung = system: NCI-H460 lung
# NCI-H522 lung = system: NCI-H522 lung
# NCI/ADR-RES ovarian = system: NCI/ADR-RES ovarian
# OVCAR-3 ovarian = system: OVCAR-3 ovarian
# OVCAR-4 ovarian = system: OVCAR-4 ovarian
# OVCAR-5 ovarian = system: OVCAR-5 ovarian
# OVCAR-8 ovarian = system: OVCAR-8 ovarian
# PC-3 prostate = system: PC-3 prostate
# RPMI-8226 leukemia = system: RPMI-8226 leukemia
# RXF 393 renal = system: RXF 393 renal
# SF-268 CNS = system: SF-268 CNS
# SF-539 CNS = system: SF-539 CNS
# SK-MEL-2 melanoma = system: SK-MEL-2 melanoma
# SK-MEL-28 melanoma = system: SK-MEL-28 melanoma
# SK-MEL-5 melanoma = system: SK-MEL-5 melanoma
# SK-OV-3 ovarian = system: SK-OV-3 ovarian
# SN12C renal = system: SN12C renal
# SNB-19 CNS = system: SNB-19 CNS
# SNB-75 CNS = system: SNB-75 CNS
# SR leukemia = system: SR leukemia
# SW-620 colon = system: SW-620 colon
# T-47D breast = system: T-47D breast
# TK-10 renal = system: TK-10 renal
# U251 CNS = system: U251 CNS
# UACC-257 melanoma = system: UACC-257 melanoma
# UACC-62 melanoma = system: UACC-62 melanoma
# UO-31 renal = system: UO-31 renal
structure (smiles),measurement,setting,value
COc1ccc(-c2n/c(=C\c3c(O)[nH]c4ccccc34)cc3c2=Nc2ccccc2-3)cc1,GI50,A498 renal,2420 nM
same,TGI,A498 renal,13200 nM
same,GI50,A549 NSCLC,1790 nM
same,TGI,A549 NSCLC,4310 nM
same,GI50,ACHN renal,6810 nM
same,TGI,ACHN renal,21300 nM
same,GI50,BT-549 breast,1450 nM
same,TGI,BT-549 breast,2960 nM
same,GI50,CAKI-1 renal,14500 nM
same,TGI,CAKI-1 renal,36700 nM
same,GI50,CCRF-CEM leukemia,2240 nM
same,TGI,CCRF-CEM leukemia,7100 nM
same,GI50,DU-145 prostate,1610 nM
same,TGI,DU-145 prostate,3310 nM
same,GI50,EKVX NSCLC,3440 nM
same,TGI,EKVX NSCLC,52000 nM
same,GI50,HCC-2998 colon,1520 nM
same,TGI,HCC-2998 colon,3070 nM
same,GI50,HCT-116 colon,1550 nM
same,TGI,HCT-116 colon,2880 nM
same,GI50,HCT-15 colon,1640 nM
same,TGI,HCT-15 colon,4130 nM
same,GI50,HL-60(TB) leukemia,1900 nM
same,TGI,HL-60(TB) leukemia,4080 nM
same,GI50,HOP-62 NSCLC,1630 nM
same,TGI,HOP-62 NSCLC,3230 nM
same,GI50,HS 578T breast,1850 nM
same,TGI,HS 578T breast,5750 nM
same,GI50,HT29 colon,1100 nM
same,TGI,HT29 colon,2290 nM
same,GI50,IGROV1 ovarian,15300 nM
same,TGI,IGROV1 ovarian,47700 nM
same,GI50,K-562 leukemia,1450 nM
same,TGI,K-562 leukemia,3630 nM
same,GI50,KM12 colon,695 nM
same,TGI,KM12 colon,2180 nM
same,GI50,LOX IMVI melanoma,1550 nM
same,TGI,LOX IMVI melanoma,2880 nM
same,GI50,M14 melanoma,1150 nM
same,TGI,M14 melanoma,2430 nM
same,GI50,MCF7 breast,1280 nM
same,TGI,MCF7 breast,2750 nM
same,GI50,MDA-MB-231 breast,1130 nM
same,TGI,MDA-MB-231 breast,2520 nM
same,GI50,MOLT-4 leukemia,2030 nM
same,TGI,MOLT-4 leukemia,4270 nM
same,GI50,NCI-H226 lung,15100 nM
same,TGI,NCI-H226 lung,36200 nM
same,GI50,NCI-H23 lung,1550 nM
same,TGI,NCI-H23 lung,3090 nM
same,GI50,NCI-H460 lung,1680 nM
same,TGI,NCI-H460 lung,3280 nM
same,GI50,NCI-H522 lung,1060 nM
same,TGI,NCI-H522 lung,2300 nM
same,GI50,NCI/ADR-RES ovarian,667 nM
same,TGI,NCI/ADR-RES ovarian,3040 nM
same,GI50,OVCAR-3 ovarian,1010 nM
same,TGI,OVCAR-3 ovarian,2280 nM
same,GI50,OVCAR-4 ovarian,1470 nM
same,TGI,OVCAR-4 ovarian,2980 nM
same,GI50,OVCAR-5 ovarian,5630 nM
same,TGI,OVCAR-5 ovarian,20400 nM
same,GI50,OVCAR-8 ovarian,1420 nM
same,TGI,OVCAR-8 ovarian,3110 nM
same,GI50,PC-3 prostate,1300 nM
same,TGI,PC-3 prostate,9310 nM
same,GI50,RPMI-8226 leukemia,2350 nM
same,TGI,RPMI-8226 leukemia,6870 nM
same,GI50,RXF 393 renal,1260 nM
same,TGI,RXF 393 renal,2670 nM
same,GI50,SF-268 CNS,1640 nM
same,TGI,SF-268 CNS,3580 nM
same,GI50,SF-539 CNS,1860 nM
same,TGI,SF-539 CNS,3310 nM
same,GI50,SK-MEL-2 melanoma,795 nM
same,TGI,SK-MEL-2 melanoma,2350 nM
same,GI50,SK-MEL-28 melanoma,1070 nM
same,TGI,SK-MEL-28 melanoma,2320 nM
same,GI50,SK-MEL-5 melanoma,1360 nM
same,TGI,SK-MEL-5 melanoma,2640 nM
same,GI50,SK-OV-3 ovarian,9190 nM
same,TGI,SK-OV-3 ovarian,35600 nM
same,GI50,SN12C renal,2030 nM
same,TGI,SN12C renal,5300 nM
same,GI50,SNB-19 CNS,1630 nM
same,TGI,SNB-19 CNS,3790 nM
same,GI50,SNB-75 CNS,2070 nM
same,TGI,SNB-75 CNS,21100 nM
same,GI50,SR leukemia,518 nM
same,TGI,SR leukemia,3150 nM
same,GI50,SW-620 colon,1110 nM
same,TGI,SW-620 colon,2310 nM
same,GI50,T-47D breast,2220 nM
same,TGI,T-47D breast,9430 nM
same,GI50,TK-10 renal,1650 nM
same,TGI,TK-10 renal,3010 nM
same,GI50,U251 CNS,1450 nM
same,TGI,U251 CNS,2760 nM
same,GI50,UACC-257 melanoma,2190 nM
same,TGI,UACC-257 melanoma,6970 nM
same,GI50,UACC-62 melanoma,1310 nM
same,TGI,UACC-62 melanoma,2580 nM
same,GI50,UO-31 renal,693 nM
same,TGI,UO-31 renal,24200 nM
